Experimental data reported in patent US12390467B2, “Necroptosis inducers or autophagy inhibitors or a combination thereof” (The University of Toledo, priority 2018, dated 2025).

Key:
Assay type in all cases: cell-based
[1] = tested on: MDA-MB231 (TNBC cell line); experiment: MTT cell viability assay, MDA-MB231; conditions: Homo sapiens, MDA-MB-231, 72 h, read-out: IC50 ± SD, MDA-MB231
Procedure: (§1) The following cancer and non-cancer cell lines were used in the initial cytotoxicity screening of the TPH104 compounds: triple negative breast cancer (TNBC): MDA-MB468, MDA-MB 231, and BT-20; non-TNBC: MCF-7 and ZR-75-1; ovarian: Ov2008; prostate: DU145; colon: HCT-116, S1, and LOVO; lung: H460; normal kidney: HEK-293; normal breast: HMEC; and normal colon: CRL-1459. All cells were cultured in Dulbecco's modified Eagle medium (DMEM), supplemented with 10% fetal bovine serum (FBS), and 1% penicillin/streptomycin (P/S). Cells were allowed to grow as adherent monolayers in T25 flasks in a humidified incubator with 5% CO2 at 37° C. for a period of 24 h, unless otherwise specified for certain experiments.
(§2) The MTT assay was used to determine the cytotoxicity of all of the compounds. Briefly, in a 96-well flat-bottom cell culture plate, the cells were seeded at a density between 3-5×10^3 cells/well (180 μl in each well) and incubated for 24 h (a hemocytometer was used for cell counting). The next day, the cells were incubated with different concentrations of the nine compounds (0, 0.1, 0.3, 1, 3, 10, 30, and 100 μM) for 72 h. After 72 h, 20 μl of 5 mg/ml of 3-(4,5-dimethylthiazol-2-yl)-2,5-diphenyltetrazolium bromide (MTT) was added to the plate and incubated with the cells for 3 h at 37° C. In this experiment, the living cells will reduce the soluble MTT dye to non-soluble purple formazan crystals. Following incubation, the media containing MTT removed via suction and 100 μL of 100% dimethyl sulfoxide (DMSO) was added to dissolve the formazan crystals. Subsequently, the plate was shaken for 2 minutes and the absorbance was measured at a wavelength of 570 nm using a SpectraMax iD3 Multi-Mode Microplate Reader (Molecular Devices, Sunnyvale, CA). The IC50 values of each compound were calculated and used to determine the selectivity ratio (IC50 in normal cells/IC50 in cancer cells) of each compound as previously described. Based on the results obtained from these experiments, the compound TPH104, which had the lowest IC50 value, was selected for further experiments.

[2] = tested on: MDA-MB468 (TNBC cell line); experiment: MTT cell viability assay, MDA-MB468; conditions: Homo sapiens, MDA-MB-468, 72 h, read-out: IC50 ± SD, MDA-MB468
Procedure: as §1, §2

[3] = tested on: ZR-75-1 (non-TNBC cell line); experiment: MTT cell viability assay, ZR-75-1; conditions: Homo sapiens, ZR-75-1, 72 h, read-out: IC50 ± SD, ZR-75-1
Procedure: as §1, §2

[4] = tested on: MCF-7 (non-TNBC cell line); experiment: MTT cell viability assay, MCF-7; conditions: Homo sapiens, MCF7, 72 h, read-out: IC50 ± SD, MCF-7
Procedure: as §1, §2

[5] = tested on: normal human mammary epithelial cells (HMEC); experiment: MTT cell viability assay, HMEC; conditions: Homo sapiens, HMEC; MTT, 72 h; Normal; read-out: IC50 ± SD, HMEC
Procedure: as §1, §2

TNBC cell lines = experiment: Cytotoxicity screening (MTT), TNBC cell lines overall; conditions: classification of Table 1 cytotoxicity data
Source text: To this end, several commercial databases were searched, and 17 similar molecules from the VitasM database were retrieved with considerable structural diversity in terms of the substitution on the aryl ring A attached to the thienopyrimidine scaffold and aryl ring B attached to hydrazino moiety. Further, the biological evaluation of the 17 molecules sheds light on the structural features deemed important for the selective cytotoxicity shown by this class of molecules. With this understanding, the 17 molecules were subjected to a screening protocol comprising of two TNBC, two non-TNBC, and one normal cell lines.
as §1, §2

[6] = target: T1, P-gp (ABCB1), DU145TXR prostate cancer cells (Homo sapiens, UniProt P08183); experiment: Calcein AM assay for P-gp modulation; conditions: concentration dependent
T1 construct: endogenous in cells; host or cells: DU145TXR prostate cancer cells
T1 sequence (P08183 whole entry): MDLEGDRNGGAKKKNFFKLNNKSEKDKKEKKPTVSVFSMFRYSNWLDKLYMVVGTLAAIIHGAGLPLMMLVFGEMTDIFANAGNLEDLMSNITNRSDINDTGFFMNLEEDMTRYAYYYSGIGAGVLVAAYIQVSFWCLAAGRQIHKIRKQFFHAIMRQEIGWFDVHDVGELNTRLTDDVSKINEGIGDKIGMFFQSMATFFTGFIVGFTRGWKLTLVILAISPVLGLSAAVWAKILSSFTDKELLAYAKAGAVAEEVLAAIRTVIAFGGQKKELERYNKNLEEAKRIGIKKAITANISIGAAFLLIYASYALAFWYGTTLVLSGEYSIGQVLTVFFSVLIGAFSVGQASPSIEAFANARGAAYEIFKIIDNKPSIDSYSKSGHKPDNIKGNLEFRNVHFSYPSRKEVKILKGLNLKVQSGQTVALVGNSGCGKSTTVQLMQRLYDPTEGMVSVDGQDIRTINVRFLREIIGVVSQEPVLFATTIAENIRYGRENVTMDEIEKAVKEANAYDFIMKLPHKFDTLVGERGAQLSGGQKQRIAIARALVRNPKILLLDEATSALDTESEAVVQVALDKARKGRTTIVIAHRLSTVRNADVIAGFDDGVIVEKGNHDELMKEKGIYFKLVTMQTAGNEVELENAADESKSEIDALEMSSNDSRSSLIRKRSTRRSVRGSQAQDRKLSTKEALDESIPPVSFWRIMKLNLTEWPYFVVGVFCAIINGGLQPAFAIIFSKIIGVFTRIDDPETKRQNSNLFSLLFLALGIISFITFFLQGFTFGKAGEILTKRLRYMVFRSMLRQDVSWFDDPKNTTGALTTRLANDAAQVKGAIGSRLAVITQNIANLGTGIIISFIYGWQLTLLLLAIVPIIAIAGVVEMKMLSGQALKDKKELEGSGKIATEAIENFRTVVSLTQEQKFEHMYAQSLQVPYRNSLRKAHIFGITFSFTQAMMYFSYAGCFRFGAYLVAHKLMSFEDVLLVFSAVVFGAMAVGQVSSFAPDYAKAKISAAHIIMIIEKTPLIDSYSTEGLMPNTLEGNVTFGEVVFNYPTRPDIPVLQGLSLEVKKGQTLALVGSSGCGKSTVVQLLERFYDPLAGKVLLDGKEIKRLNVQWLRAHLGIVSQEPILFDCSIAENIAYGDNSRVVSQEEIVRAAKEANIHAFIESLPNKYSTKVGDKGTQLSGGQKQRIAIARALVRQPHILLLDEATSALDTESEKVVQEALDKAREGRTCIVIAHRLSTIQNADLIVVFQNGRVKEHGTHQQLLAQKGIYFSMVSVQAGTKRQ
Procedure: Ability of P-gp to efflux Calcein AM is used to identify the molecules which interfere with P-gp transporter activity. About 10000 cells of DU145TXR prostate cancer cells were seeded in each well in 96 well plates and allowed to grow until confluency for 4-5 days. Then media was replaced with phenol red free RPMI media and cells were treated with indicated concentrations of TPH104s and 1 μg/mL of Calcein AM. Fluorescence measured after 60 minutes with excitation at 485/20 nm and at emission 535/20 nm using the BioTek Cytation 5 imaging multi-mode reader (Bio-Tek, Winooski, VT). DMSO (0.5% v/v) was used as the vehicle, and 15 μM of Pgp inhibitor SMU 45 was used as a positive control. (n=6 in each trial).

[7] = target: T2, BCRP (ABCG2), MCF-7 M100 breast cancer cells (Homo sapiens, UniProt Q9UNQ0); experiment: Hoechst 33342 assay for BCRP modulation; conditions: concentration dependent
T2 construct: endogenous in cells; host or cells: MCF-7 M100 breast cancer cells
T2 sequence (Q9UNQ0 whole entry): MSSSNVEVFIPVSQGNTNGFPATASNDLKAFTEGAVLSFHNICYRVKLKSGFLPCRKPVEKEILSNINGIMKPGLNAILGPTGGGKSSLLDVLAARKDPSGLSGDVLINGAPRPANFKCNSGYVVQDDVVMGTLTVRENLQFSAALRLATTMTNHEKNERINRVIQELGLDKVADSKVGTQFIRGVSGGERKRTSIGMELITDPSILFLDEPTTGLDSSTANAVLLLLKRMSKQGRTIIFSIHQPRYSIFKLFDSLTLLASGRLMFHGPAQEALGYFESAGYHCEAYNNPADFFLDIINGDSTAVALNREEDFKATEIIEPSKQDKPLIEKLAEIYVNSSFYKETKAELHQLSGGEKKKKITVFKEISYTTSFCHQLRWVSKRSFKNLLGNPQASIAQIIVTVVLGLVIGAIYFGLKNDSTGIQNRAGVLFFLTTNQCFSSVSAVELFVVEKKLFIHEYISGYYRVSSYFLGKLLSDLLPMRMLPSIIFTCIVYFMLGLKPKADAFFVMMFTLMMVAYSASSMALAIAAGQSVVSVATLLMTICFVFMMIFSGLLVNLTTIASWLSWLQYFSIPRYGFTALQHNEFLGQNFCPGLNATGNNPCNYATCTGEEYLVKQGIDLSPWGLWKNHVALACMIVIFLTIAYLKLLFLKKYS
Procedure: Ability of BCRP to efflux nuclear stain Hoechst 33342 was used to identify the molecules which interfere with BCRP transporter activity. About 14000 cells of MCF-7 M100 breast cancer cells were seeded in each well in 96 well plates and allowed to grow until confluency for 4-5 days. Then media was replaced with phenol red free RPMI media and cells were treated with indicated concentrations of TPH104s and 5 μg/mL of Hoechst 33342. Fluorescence measured after 60 minutes with excitation at 361/20 nm and at emission 497/20 nm using the BioTek Cytation 5 imaging multi-mode reader (Bio-Tek, Winooski, VT). DMSO (0.5% v/v) was used as the vehicle, and 0.5 μM of BCRP inhibitor, Ko143 was used as a positive control and 15 μM of P-gp modulator, verapamil was used as negative control.

BT-20 cells = experiment: Acridine orange assay; conditions: 20 μM, 12 h, vs vehicle
Procedure: The cell-permeant, nucleic acid binding dye, acridine orange (AO) was used to assess the effect of TPH104 on the activation of lysosomes. A 10 μg/ml stock solution was prepared using PBS. The TNBC cells were seeded in a 6-well plate as described in the cell cycle assay. After overnight incubation, cells were incubated with TPH104 (1, 2, 5 μM), vehicle or 20 uM of chloroquine (CQ, […]) for 12 h. The media was removed via suction and 1 ml of AO, diluted in 1:1000 in PBS, was added to each well and the plate was incubated for an additional 30 minutes. Cells were washed three times in PBS to remove excess dye. The cells from each well were captured from randomly selected fields using a fluorescent microscope (EVOS-FLC cell imaging system, Thermofisher scientific) at 40× to determine the AO fluorescence intensity which is positively correlated to lysosomal activation.

BT-20 or MDA-MB468 cells = experiment: Cellular reactive oxygen species (ROS) detection assay (H2DCFDA); conditions: 2 μM
Procedure: To assess the effect of TPH104 on the generation of ROS, a cell permeant, fluorogenic dye, 2′,7′-dichlorofluorescin diacetate, H2DCFDA, was used. A 5 mM stock solution was prepared using DMSO and PBS was used to prepare the 3 μM working solution of H2DCFDA. The TNBC cells were seeded in a 6-well plate as described in the cell cycle assay. After overnight incubation, cells were incubated with different TPH104 (1, 2, 5 μM) or vehicle for 12 h or with 2 μM of paclitaxel (positive control) for 2 h. The H2DCFDA dye (3 μM) was added to each well and the plate was incubated for an additional 30 minutes. Subsequently, cells were washed 3 times in PBS to remove excess H2DCFDA dye. Thereafter, cells from each well were captured from randomly selected fields using a fluorescent microscope (EVOS-FLC cell imaging system, Thermofisher scientific) at 40× to determine the 2′,7′-dichlorofluorescein (DCF) fluorescence intensity, which is positively correlated with the generation of ROS.

[8] = tested on: RIP, p-RIP, MLKL, caspase 8 in MDA-MB468 cells; experiment: Western blot, necroptotic proteins, MDA-MB468; conditions: 100 μM
Procedure: The TNBC cells were seeded in a culture flask and incubated for 24 h. The cells were then incubated with different concentrations of the lead compounds and re-incubated for an additional 12 or 24 h. […] The bicinchoninic acid (BCA) was used to determine protein concentration in the cell extracts (G-BIOSCIENCES, St. Louis, MO, USA). […] The membrane was blocked using 5% milk in Tris-buffered Tween 20 saline for 30 minutes. The membrane was then incubated overnight with primary antibodies against Bak, Bax, Bcl-2, caspase9, caspase 3, caspase 7, PARP, cytochrome c, N-cadherin, E-cadherin, c-Myc, dishevelled segment polarity protein 3 (DVL3), dishevelled segment polarity protein 2 (DVL2), Vimentin, mitogen-activated protein kinase kinase (MAPKK also known as MEK1/2), β-catenin, low-density lipoprotein receptor-related protein 6 (LRP6), receptor-interacting protein kinase (RIP), phosphorylated RIP (p-RIP), mixed lineage kinase domain like pseudokinase(MLKL), Caspase 8, light chain 3 (LC3), lysosomal-associated membrane protein 1 (LAMP1), unc-51 like autophagy activating kinase 1 (ULK1), ras associated protein 7 (Rab7), ras associated protein 5 (Rab5), Beclin 1, mechanistic target of rapamycin (mTOR), tumor necrosis factor alpha (TNF-α), tumor necrosis factor receptor 1 (TNFR1), tumor necrosis factor receptor 2 (TNFR2), Fas-associated protein with death domain (FADD), Fas ligand (Fas), TNF-related apoptosis-inducing ligand (TRAIL), death receptor 5 (DR5), Tumor necrosis factor receptor type 1-associated DEATH domain (TRADD), receptor-interacting protein kinase 3 (RIP3), β-actin or GAPDH in 1:1000 dilution in 5% milk or 5% BSA at 4° C. Horseradish peroxidase-labeled (HRP) anti-rabbit or anti-mouse secondary antibodies (1:5,000 dilution) were added and incubated the next day for an additional 1 h. A ChemiDoc™ MP System imaging system from Bio-Rad (Hercules, CA, USA) was used for blots reading. Blots were used to obtain the protein bands, followed by quantification of the bands using image J software (NIH, Bethesda, MD, USA). All of the data were expressed as the ratio of β-actin or GAPDH.

Row | Compound | IC50 [1] [µM] | IC50 [2] [µM] | IC50 [3] [µM] | IC50 [4] [µM] | IC50 [5] [µM] | potency compared to TPH104 (TNBC cell lines) | other results
1 | Cc1ccc(-c2csc3ncnc(N/N=C/c4ccc(Br)cc4O)c23)cc1 [TPH104m] | 0.44 ± 0.21 | 0.29 ± 0.01 | > 100 | 2.73 ± 1.02 | > 100 | comparable potency to that of TPH104 | efflux function of ABCB1 [6]: blocking the efflux function; efflux function of ABCG2 [7]: blocking the efflux function
2 | COc1cc(/C=N/Nc2ncnc3scc(-c4ccccc4)c23)ccc1O [TPH104q] | 18.6 ± 2.57 | 22.2 ± 0.78 | 21.4 ± 3.11 | 23.5 ± 1.12 | > 100 | poor or no potency | 
3 | CCN(CC)CCCC(C)Nc1ccnc2cc(Cl)ccc12 (centres unmarked) [chloroquine, reference compound] |  |  |  |  |  |  | AO fluorescence intensity, negative control (BT-20 cells): no significant change
4 | CC(=O)O[C@H]1C(=O)[C@@]2(C)[C@H]([C@H](OC(=O)c3ccccc3)[C@]3(O)C[C@H](OC(=O)[C@H](O)[C@@H](NC(=O)c4ccccc4)c4ccccc4)C(C)=C1C3(C)C)[C@]1(OC(C)=O)CO[C@@H]1C[C@@H]2O [paclitaxel, reference compound] |  |  |  |  |  |  | DCF fluorescence (ROS), positive control (BT-20 or MDA-MB468 cells): significantly increased
5 | necrostatin-1 [nec-1, reference compound] |  |  |  |  |  |  | expression of RIP, p-RIP, MLKL, and caspase 8 [8]: significantly downregulated
